{"source": "patent US20050272682A1", "about": "“SiRNA targeting PI3K signal transduction pathway and siRNA-based therapy” (priority 2004, published 2005)", "assay_type_in_all_cases": "cell-based, human", "key": {"KM20 cells [1]": {"test_system": "KM20 cells", "assay": "Western blot of apoptosis-related proteins, KM20 cells", "experimental": "(§1) Cell culture transfection was carried out with siPORT™ Amine transfection agent according to the manufacturer's protocol. Three days after transfection with the siRNA duplexes, cells were harvested and protein expression was assessed by Western blot.\n(§2) Western immunoblot analyses were performed as described previously (Wang, et al., 2000). Cells were lysed with TNN buffer at 4° C. for 30 min. Lysates were clarified by centrifugation (10,000×g for 30 min at 4° C.) and protein concentrations determined using the method of Bradford (1976). Briefly, total protein (100 μg) was resolved on a 10% polyacrylamide gel and transferred to Immobilon-P […] membranes. Filters were incubated overnight at 4° C. in blotting solution (Tris-buffered saline containing 5% nonfat dried milk and 0.1% Tween 20), followed by a 1-h incubation with primary antibodies. Filters were washed three times in a blocking solution and incubated with horseradish peroxidase-conjugated secondary antibodies for 1 h. After three additional washes, the immune complexes were visualized by ECL detection."}, "KM12C cells [2]": {"test_system": "KM12C cells", "assay": "DNA fragmentation assay (Cell Death Detection ELISA), KM12C cells", "experimental": "(§3) Cells were transfected with pik3r1, Akt1 or scrambled siRNA. After 48 h, adherent cells were detached by rapid trypsinization, counted in a Hausser chamber and seeded at a density of 2×10^3 cells per well in 96-well flat-bottom microtiter plates and incubated in 250 μl of growth medium for 24 h at 37° C. Media were removed and either new complete media or TRAIL (100 ng/mL) was added in a final volume of 200 μL and allowed to grow for 24 h at 37° C. After treatment, DNA fragmentation was evaluated by examination of cytoplasmic histone-associated DNA fragments (mono- and oligonucleosomes) using a Cell Death Detection ELISA^Plus kit (Roche Molecular Biochemicals) according to the manufacturer's instructions and as previously described (Wang. et al., 2002). The experiments were repeated on at least 3 separate occasions."}, "KM12C cells [3]": {"test_system": "KM12C cells", "assay": "Ribonuclease protection assay, KM12C cells", "experimental": "Cells were treated with pik3r1 and Akt1 siRNA and harvested 72 h later. RNA was isolated from cells using TRIzol® RNA reagent according to the manufacturer's protocol. A multiprobe template set (hAPO3c), which assesses expression of caspase 8, FASL, FAS, DR3, Decoy receptor 1 (DcR1), DR4, DR5, TRAIL, TNFR p55, TRADD and the housekeeping genes GAPDH and L32, as well as the Human Apoptosis hAPO-2b and hAPO-2c Template Set were labeled using Ambion T7 MAXIscript. The Ambion RPA III kit was then utilized to hybridize the RNA from the samples with the labeled probes. After RNAse treatment of hybridized samples, protected products were resolved on a 5% acrylamide gel, adsorbed onto filter paper, and exposed to Kodak BioMax MR film in a cassette at −70° C. and analyzed as previously described (Wang, et al., 2000)."}, "KM20 cells [4]": {"test_system": "KM20 cells", "assay": "DNA fragmentation assay (Cell Death Detection ELISA), KM20 cells", "settings": "KM20 cells", "experimental": "as §3"}, "KM12C cells [5]": {"test_system": "KM12C cells", "assay": "Western blot of apoptosis-related proteins, KM12C cells", "experimental": "as §1, §2"}, "[6]": {"settings": "siRNA in combination with TRAIL"}, "[7]": {"settings": "siRNA alone compared to scrambled sequence"}, "[8]": {"settings": "siRNA in combination with TRAIL 100 ng/mL"}}, "note": "“Also recorded” adds a separate entry of the source."}
{"substance": "pik3r1 siRNA: siRNA to human pik3r1 (p85α) used in KM20/KM12C cells and xenografts; SEQ ID NO:24 vs. SEQ ID NO:25 (chain 1 GAAUAUACCCGCACAUCCCUU; chain 2 GGGAUGUGCGGGUAUAUUCUU; listed as RNA, chemistry not given here)", "values": [{"measurement": "Bax protein expression", "setting": "KM20 cells [1]", "result": "increased"}, {"measurement": "Bcl-2 protein expression", "setting": "KM20 cells [1]", "result": "decreased"}, {"measurement": "Bcl-xL protein expression", "setting": "KM20 cells [1]", "result": "decreased"}, {"measurement": "caspase-9 activation (35 kDa large active subunit)", "setting": "KM20 cells [1]", "result": "activation"}, {"measurement": "cytochrome C release", "setting": "KM20 cells [1]", "result": "induced"}, {"measurement": "protein expression for DR4/DR5", "setting": "KM20 cells [1]", "result": "increased"}, {"measurement": "BID cleavage", "setting": "KM20 cells [1]; [6]", "result": "BID cleavage"}, {"measurement": "caspase-8 activation", "setting": "KM20 cells [1]; [6]", "result": "activated"}, {"measurement": "cleavage of pro-caspase-3", "setting": "KM20 cells [1]; siRNA in combination with TRAIL compared with TRAIL alone", "result": "enhanced"}, {"measurement": "DNA fragmentation (apoptosis)", "setting": "KM12C cells [2]; [7]", "result": "increase; also recorded: induced"}, {"measurement": "TRAIL-mediated apoptosis (DNA fragmentation)", "setting": "KM12C cells [2]; [8]", "result": "significant augmentation"}, {"measurement": "Bcl-w mRNA expression", "setting": "KM12C cells [3]", "result": "decreased"}, {"measurement": "Bcl-x (L, S) mRNA expression", "setting": "KM12C cells [3]", "result": "decreased"}, {"measurement": "DNA fragmentation (apoptosis)", "setting": "KM20 cells [4]; [7]", "result": "increase; also recorded: induced"}, {"measurement": "TRAIL-mediated apoptosis (DNA fragmentation)", "setting": "KM20 cells [4]; [8]", "result": "significant augmentation"}, {"measurement": "Bax protein expression", "setting": "KM12C cells [5]", "result": "increased"}, {"measurement": "Bcl-2 protein expression", "setting": "KM12C cells [5]", "result": "decreased"}, {"measurement": "Bcl-xL protein expression", "setting": "KM12C cells [5]", "result": "decreased"}, {"measurement": "caspase-9 activation (35 kDa large active subunit)", "setting": "KM12C cells [5]", "result": "activation"}, {"measurement": "cytochrome C release", "setting": "KM12C cells [5]", "result": "induced"}]}
